Target: Ryanodine receptor 1 (Homo sapiens) (UniProt P21817)
Assay: Displacement of [3H]ryanodine from RyR1 calcium channel in sarcoplasmic reticulum assessed as calcium mobilization

Sequence of Ryanodine receptor 1 (Homo sapiens) (P21817 whole entry): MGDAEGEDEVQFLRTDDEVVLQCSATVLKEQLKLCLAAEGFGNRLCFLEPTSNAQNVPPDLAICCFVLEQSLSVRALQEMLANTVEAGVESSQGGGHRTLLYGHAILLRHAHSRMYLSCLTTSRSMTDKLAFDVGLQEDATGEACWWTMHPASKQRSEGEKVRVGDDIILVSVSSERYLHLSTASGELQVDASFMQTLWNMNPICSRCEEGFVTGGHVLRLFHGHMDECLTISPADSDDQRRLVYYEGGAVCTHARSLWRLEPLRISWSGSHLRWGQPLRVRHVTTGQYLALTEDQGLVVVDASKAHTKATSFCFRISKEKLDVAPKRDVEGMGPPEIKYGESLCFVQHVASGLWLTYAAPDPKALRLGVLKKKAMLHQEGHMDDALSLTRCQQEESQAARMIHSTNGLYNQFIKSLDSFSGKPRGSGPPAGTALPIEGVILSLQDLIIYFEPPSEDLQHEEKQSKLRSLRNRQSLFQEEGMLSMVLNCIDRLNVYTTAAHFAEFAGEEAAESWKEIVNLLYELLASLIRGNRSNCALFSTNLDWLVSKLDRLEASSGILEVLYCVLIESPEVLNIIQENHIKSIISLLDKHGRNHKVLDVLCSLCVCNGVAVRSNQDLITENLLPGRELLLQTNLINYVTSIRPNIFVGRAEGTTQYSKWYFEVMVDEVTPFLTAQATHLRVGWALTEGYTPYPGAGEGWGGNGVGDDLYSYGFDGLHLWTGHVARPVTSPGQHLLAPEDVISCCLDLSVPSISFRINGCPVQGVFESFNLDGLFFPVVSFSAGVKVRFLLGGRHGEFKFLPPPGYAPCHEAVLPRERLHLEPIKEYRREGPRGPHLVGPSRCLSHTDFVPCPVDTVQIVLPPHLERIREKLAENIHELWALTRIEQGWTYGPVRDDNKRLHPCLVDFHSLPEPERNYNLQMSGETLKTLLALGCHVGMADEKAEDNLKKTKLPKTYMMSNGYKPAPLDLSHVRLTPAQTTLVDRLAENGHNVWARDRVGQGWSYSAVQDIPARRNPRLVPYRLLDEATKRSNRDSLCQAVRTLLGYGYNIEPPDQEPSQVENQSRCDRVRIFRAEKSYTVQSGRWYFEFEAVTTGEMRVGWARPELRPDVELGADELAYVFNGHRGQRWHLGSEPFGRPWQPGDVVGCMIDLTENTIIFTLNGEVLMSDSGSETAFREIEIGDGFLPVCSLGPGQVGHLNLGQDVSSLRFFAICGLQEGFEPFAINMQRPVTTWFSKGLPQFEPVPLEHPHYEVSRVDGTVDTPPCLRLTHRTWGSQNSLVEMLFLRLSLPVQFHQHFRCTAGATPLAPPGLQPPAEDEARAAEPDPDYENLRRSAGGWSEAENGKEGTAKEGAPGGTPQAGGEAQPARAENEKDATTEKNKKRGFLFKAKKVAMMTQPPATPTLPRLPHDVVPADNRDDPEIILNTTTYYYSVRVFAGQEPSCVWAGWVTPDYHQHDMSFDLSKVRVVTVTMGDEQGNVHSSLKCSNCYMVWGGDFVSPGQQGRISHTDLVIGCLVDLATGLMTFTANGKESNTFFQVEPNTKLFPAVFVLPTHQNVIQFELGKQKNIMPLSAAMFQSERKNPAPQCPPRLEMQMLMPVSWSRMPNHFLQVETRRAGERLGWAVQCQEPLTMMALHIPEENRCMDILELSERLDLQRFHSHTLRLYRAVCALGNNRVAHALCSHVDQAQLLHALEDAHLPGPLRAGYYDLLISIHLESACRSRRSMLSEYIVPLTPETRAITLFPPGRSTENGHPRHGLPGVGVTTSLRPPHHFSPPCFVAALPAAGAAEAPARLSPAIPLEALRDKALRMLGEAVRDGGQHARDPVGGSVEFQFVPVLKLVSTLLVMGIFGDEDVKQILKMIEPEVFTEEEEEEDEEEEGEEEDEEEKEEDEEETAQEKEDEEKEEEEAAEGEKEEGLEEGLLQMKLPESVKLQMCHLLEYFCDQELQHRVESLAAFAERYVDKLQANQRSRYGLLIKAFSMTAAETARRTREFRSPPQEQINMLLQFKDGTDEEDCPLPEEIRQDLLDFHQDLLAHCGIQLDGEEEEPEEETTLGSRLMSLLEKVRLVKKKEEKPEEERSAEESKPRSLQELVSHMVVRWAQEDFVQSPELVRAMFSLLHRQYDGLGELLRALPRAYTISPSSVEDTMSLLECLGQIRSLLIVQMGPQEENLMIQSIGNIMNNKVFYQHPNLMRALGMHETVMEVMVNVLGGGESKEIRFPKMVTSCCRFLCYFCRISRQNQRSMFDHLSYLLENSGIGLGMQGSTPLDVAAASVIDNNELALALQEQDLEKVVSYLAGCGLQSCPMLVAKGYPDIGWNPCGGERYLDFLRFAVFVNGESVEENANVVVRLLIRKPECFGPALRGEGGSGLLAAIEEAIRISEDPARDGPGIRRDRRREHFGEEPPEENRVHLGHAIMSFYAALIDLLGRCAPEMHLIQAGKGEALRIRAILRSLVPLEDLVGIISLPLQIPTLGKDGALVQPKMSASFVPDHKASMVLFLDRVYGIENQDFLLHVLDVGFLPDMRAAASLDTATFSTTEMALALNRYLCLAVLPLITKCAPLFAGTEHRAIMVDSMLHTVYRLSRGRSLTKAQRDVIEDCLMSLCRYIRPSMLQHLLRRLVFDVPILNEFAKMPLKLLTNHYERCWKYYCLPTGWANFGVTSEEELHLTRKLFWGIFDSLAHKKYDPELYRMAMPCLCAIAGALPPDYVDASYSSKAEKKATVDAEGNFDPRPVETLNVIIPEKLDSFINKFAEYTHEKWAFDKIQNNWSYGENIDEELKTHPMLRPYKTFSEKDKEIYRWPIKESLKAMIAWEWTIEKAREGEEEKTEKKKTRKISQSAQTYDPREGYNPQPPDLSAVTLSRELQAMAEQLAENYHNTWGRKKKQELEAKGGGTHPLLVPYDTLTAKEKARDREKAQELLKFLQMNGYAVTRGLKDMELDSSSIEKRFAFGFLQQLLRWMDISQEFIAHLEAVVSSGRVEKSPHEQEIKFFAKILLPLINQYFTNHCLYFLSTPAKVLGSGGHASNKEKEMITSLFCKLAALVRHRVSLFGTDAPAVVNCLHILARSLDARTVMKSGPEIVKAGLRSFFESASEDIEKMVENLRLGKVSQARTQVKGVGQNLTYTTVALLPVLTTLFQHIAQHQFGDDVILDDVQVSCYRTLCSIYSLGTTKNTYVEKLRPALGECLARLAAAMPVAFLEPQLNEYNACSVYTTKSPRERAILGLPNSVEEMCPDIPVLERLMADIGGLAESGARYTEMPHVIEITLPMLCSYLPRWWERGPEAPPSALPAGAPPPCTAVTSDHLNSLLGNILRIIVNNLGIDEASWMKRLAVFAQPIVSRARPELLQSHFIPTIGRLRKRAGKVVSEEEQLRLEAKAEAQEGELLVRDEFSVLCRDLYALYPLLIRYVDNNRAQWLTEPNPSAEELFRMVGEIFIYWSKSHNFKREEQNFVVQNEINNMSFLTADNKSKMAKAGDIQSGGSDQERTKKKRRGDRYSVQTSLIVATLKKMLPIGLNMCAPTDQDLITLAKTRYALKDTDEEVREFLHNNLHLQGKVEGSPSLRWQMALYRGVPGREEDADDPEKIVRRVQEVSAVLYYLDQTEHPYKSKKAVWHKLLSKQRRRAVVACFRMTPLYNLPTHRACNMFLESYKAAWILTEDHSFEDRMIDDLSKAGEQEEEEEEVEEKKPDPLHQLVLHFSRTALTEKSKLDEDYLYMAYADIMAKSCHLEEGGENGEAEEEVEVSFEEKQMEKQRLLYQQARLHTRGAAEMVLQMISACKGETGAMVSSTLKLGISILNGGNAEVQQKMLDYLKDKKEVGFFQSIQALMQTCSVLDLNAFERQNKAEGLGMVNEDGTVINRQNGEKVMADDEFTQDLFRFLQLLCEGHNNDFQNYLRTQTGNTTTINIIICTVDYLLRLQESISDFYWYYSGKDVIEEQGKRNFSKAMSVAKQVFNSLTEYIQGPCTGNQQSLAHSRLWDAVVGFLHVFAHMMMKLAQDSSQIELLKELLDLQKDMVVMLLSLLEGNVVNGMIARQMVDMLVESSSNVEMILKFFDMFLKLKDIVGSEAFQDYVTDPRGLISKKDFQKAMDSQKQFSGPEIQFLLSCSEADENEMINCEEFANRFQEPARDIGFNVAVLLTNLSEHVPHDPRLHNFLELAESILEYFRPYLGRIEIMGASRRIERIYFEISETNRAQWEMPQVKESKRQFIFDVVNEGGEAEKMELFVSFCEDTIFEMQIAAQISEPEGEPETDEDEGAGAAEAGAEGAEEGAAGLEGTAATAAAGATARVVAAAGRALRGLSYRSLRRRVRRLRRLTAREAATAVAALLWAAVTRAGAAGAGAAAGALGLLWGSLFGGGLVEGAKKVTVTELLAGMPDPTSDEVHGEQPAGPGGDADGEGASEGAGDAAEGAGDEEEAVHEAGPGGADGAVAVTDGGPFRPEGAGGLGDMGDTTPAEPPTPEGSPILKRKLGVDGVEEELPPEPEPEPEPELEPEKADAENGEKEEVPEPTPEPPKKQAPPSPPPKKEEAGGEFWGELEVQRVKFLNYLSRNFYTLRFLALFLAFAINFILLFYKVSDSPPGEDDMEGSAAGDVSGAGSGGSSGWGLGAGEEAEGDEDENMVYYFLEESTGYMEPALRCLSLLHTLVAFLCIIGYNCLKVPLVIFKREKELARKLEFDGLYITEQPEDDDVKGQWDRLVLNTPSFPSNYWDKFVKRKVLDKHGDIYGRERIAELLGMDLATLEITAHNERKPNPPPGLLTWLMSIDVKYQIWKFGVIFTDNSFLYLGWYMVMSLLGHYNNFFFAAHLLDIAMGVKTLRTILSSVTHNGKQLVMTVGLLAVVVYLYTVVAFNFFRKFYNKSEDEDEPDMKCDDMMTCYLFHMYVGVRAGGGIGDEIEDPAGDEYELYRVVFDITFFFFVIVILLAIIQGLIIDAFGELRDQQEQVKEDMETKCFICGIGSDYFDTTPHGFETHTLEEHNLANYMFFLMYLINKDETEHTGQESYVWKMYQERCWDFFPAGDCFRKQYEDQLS

Compound O=C1NCCc2cc(Br)c(O)c(c2)Oc2ccc(cc2Br)CCNC(=O)/C(=N\O)Cc2cc(Br)c(O)c(c2)Oc2c(Br)cc(cc2Br)C/C1=N/O has an ED50 of 2.3 µM.
